Experimental findings from patent publication US11066414B2, “Cot modulators and methods of use thereof” (Gilead Sciences, Inc., priority 2015, dated 2021) are described below.

One test concerns TNFα. The experiment in a line: Cot Monocyte TNFα Cell Based Assay.
In a further test the target is Human Cot (Homo sapiens (Human), UniProt P41279). The experiment in a line: High Throughput Cot Biochemical Assay.
Setting [1] is: Homo sapiens, Monocyte, read-out: EC50 TNF, LPS-stimulated human monocytes, TNFα.
[2] abbreviates: IC50 HTRF, Cot HTRF (TR-FRET) biochemical assay.
Where [3] appears, read: read-out: IC50 HTRF, Cot HTRF (TR-FRET) biochemical assay.
The mark [4] stands for this setting: Homo sapiens, Monocyte, read-out: EC50 TNF, LPS-stimulated human monocytes, TNFα TR-FRET.
The mark [5] stands for this setting: IC50 HTRF, Cot HTRF (TR-FRET KinEASE) biochemical assay, 400 μM ATP.

Where two headings read alike, the source gives them in different places.

Human Cot, sequence (P41279 30-397): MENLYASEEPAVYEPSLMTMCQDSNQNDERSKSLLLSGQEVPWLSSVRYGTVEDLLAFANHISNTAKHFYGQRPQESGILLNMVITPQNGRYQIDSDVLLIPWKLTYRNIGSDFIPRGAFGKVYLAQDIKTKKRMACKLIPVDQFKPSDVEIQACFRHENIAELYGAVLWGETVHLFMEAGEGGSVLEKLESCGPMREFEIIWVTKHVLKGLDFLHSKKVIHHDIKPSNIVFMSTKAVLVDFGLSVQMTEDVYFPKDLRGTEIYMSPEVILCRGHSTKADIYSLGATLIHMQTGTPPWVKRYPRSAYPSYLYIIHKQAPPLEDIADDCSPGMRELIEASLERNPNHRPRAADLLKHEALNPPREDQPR
Method for TNFα: The cell suspension was then plated at a density of 5,000 cells/well onto black 384 well Greiner clear bottom plates. Plates were pre-spotted with test compounds and serially diluted in DMSO where 200 nL/well were delivered using the Echo 550 acoustic liquid dispenser (Labcyte®) for a final DMSO concentration of 0.5%. Plated cells were treated with compound for 1 hour at 37° C. Cells were then stimulated with 50 pg/ml of LPS (Sigma) excluding outside columns of plate used for unstimulated cell control wells. Cells were incubated for an additional 4 hours at 37° C. Cells were then spun out of the media and 5 μl of sample were taken and analyzed for total TNFα content using the TR-FRET Human TNFα detection system (CisBio). This system utilizes two labeled antibodies (cryptate and XL665) that bind to two different epitopes of the TNFα molecule and produce FRET signal proportional to the concentration of TNFα in the sample. […] Plates were covered with clear seals and incubated at room temp overnight. […] Percent of control was calculated as follows: % Control=100×(RatioSample−Ratio0% Stimulation)/(Ratio100% Stimulation−Ratio0% Stimulation) where unstimulated cells (0% stimulation) were the negative control and stimulated cells (100% stimulation) were used as the positive control.

Regarding `Cn1cc2c([C@H](Nc3cc(C#N)c4ncc(C#N)c(NCC(C)(C)C)c4c3)c3cn(C4(C(F)(F)F)CC4)nn3)cccc2n1` [Example 558, (S)-6-(((2-methyl-2H-indazol-4-yl)(1-(1-(trifluoromethyl)cyclopropyl)-1H-1,2,3-triazol-4-yl)methyl)amino)-4-(neopentyl-amino)quinoline-3,8-dicarbonitrile], the EC50 in the test with TNFα (setting [1]) is 72 nM. Besides, 3 nM corresponded to half-maximal inhibition against Human Cot (setting [2]) (IC50).
In the case of `CC(C)(C)CNc1c(C#N)cnc2c(Cl)cc(N[C@@H](c3cn(C4CC4)nn3)c3csc4c3CCN(C3COC3)C4)cc12` [Example 81, (R)-8-chloro-6-(((1-cyclopropyl-1H-1,2,3-triazol-4-yl)(6-(oxctan-3-yl)-4,5,6,7-tetrahydrothieno[2,3-c]pyridin-3-yl)methyl)amino)-4-(neopentylamino)-quinoline-3-carbonitrile], the EC50 in the test on TNFα (read-out: EC50 TNF, LPS-stimulated human monocytes, TNFα) was greater than 1000 nM. Besides, the IC50 at Human Cot (setting [3]) is 400 nM.
Take `Cc1ncccc1[C@H](Nc1cc(Cl)c2ncc(C#N)c(NCC(C)(C)C)c2c1)c1cn(C2CC2)nn1` [Example 131, (S)-8-chloro-6-(((1-cyclopropyl-1H-1,2,3-triazol-4-yl)(2-methylpyridin-3-yl)methyl)amino)-4-(neopentyl-amino)quinoline-3-carbonitrile]: the EC50 in the test on TNFα (setting [1]) amounted to 49 nM. On Human Cot (setting [2]), this molecule showed an IC50 of 2 nM.
In the case of `Cc1c([C@H](Nc2cc(Cl)c3ncc(C#N)c(NCC(C)(C)C)c3c2)c2cn(C3(C(F)F)CC3)nn2)ccc(=O)n1C` [Example 732, (S)-8-chloro-6-(((1-(1-(difluoromethyl)cyclopropyl)-1H-1,2,3-triazol-4-yl)(1,2-dimethyl-6-oxo-1,6-dihydropyridin-3-yl)methyl)amino)-4-(neopentylamino)quinoline-3-carbonitrile], the EC50 with TNFα (setting [1]) stood at 779 nM. The molecule also registered an IC50 against Human Cot (setting [2]) of 11 nM.
`Cc1n[nH]c2cccc([C@H](Nc3cc(C#N)c4ncc(C#N)c(NCC(C)(C)C)c4c3)c3cn(C4(C(F)(F)F)CC4)nn3)c12` [Example 528, (S)-6-(((3-methyl-1H-indazol-4-yl)(1-(1-(trifluoro-methyl)cyclopropyl)-1H-1,2,3-triazol-4-yl)methyl)amino)-4-(neopentylamino)quinoline-3,8-dicarbonitrile]: in the test with TNFα (setting [1]), the EC50 stood at 60 nM. This molecule also displayed an IC50 against Human Cot (setting [2]) of 3 nM.
On to `CC(C)(C)CNc1c(C#N)cnc2c(C#N)cc(N[C@H](c3cn(C4(C#N)CC4)nn3)c3cccc4ncsc34)cc12` [Example 67, (S)-6-((benzo[d]thiazol-7-yl(1-(1-cyanocyclopropyl)-1H-1,2,3-triazol-4-yl)methyl)amino)-4-(neopentylamino)quinoline-3,8-dicarbonitrile], for which the EC50 with TNFα (setting [1]) came out at 32 nM. The same molecule returned an IC50 against Human Cot (setting [2]) of 1 nM.
As for `Cc1nc(F)ccc1[C@H](Nc1cc(Cl)c2ncc(C#N)c(NCC(C)(C)C)c2c1)c1cn(C2(CO)CC2)nn1` [Example 482, (S)-8-chloro-6-(((6-fluoro-2-methylpyridin-3-yl)(1-(1-(hydroxymethyl)cyclopropyl)-1H-1,2,3-triazol-4-yl)methyl)amino)-4-(neopentylamino)quinoline-3-carbonitrile], in the test with TNFα (setting [1]), the 50% effective concentration (EC50) is 86 nM. For the same molecule, the IC50 against Human Cot (setting [2]) turned out to be 3 nM.
Regarding `Cc1nc(F)ccc1[C@H](Nc1cc(C#N)c2ncc(C#N)c(NCC(C)(C)C)c2c1)c1cn(C2CC23CC3)nn1` (stereo partly drawn) [Example 872, 6-(((1S)-(6-fluoro-2-methylpyridin-3-yl)(1-(spiro[2.2]pentan-1-yl)-1H-1,2,3-triazol-4-yl)methyl)amino)-4-(neopentylamino)quinoline-3,8-dicarbonitrile], the EC50 with TNFα (setting [4]) was 15 nM. This molecule also returned an IC50 at Human Cot (setting [5]) of 1 nM.
`[2H][C@](Nc1cc(C#N)c2ncc(C#N)c(NCC(C)(C)C)c2c1)(c1ccc(F)nc1)c1cn(C)nn1` [Example 99, (S)-6-(((6-fluoropyridin-3-yl)(1-methyl-1H-1,2,3-triazol-4-yl)methyl-d)amino)-4-(neopentylamino)quinoline-3,8-dicarbonitrile]: the EC50 in the test with TNFα (setting [1]) amounted to 143 nM. Half-maximal inhibition against Human Cot (setting [2]) (IC50) was put at 3 nM.
As to `Cc1nc(F)ccc1[C@H](Nc1cc(Cl)c2ncc(C#N)c(NCC(C)(C)C(F)(F)F)c2c1)c1cn(C(C)(C)C)nn1` [Example 715, (S)-6-(((1-(tert-butyl)-1H-1,2,3-triazol-4-yl)(6-fluoro-2-methylpyridin-3-yl)methyl)amino)-8-chloro-4-((3,3,3-trifluoro-2,2-dimethylpropyl)amino)quinoline-3-carbonitrile], the EC50 with TNFα (setting [1]) turned out to be 91 nM. The same molecule had an IC50 at Human Cot (setting [2]) of 3 nM.
As for `CC(C)(C)CNc1c(C#N)cnc2c(Cl)cc(N[C@H](c3cn(C4(C(F)(F)F)CC4)nn3)c3cccc4ccncc34)cc12` [Example 533, (S)-8-chloro-6-((isoquinolin-8-yl(1-(1-(trifluoromethyl)cyclopropyl)-1H-1,2,3-triazol-4-yl)methyl)amino)-4-(neopentyl-amino)quinoline-3-carbonitrile], the EC50 in the test on TNFα (setting [1]) turned out to be 96 nM. For the same molecule, half-maximal inhibition against Human Cot (setting [2]) (IC50) was put at 3 nM.
On to `N#Cc1cnc2c(Cl)cc(NC(c3ccccn3)c3ccccn3)cc2c1Nc1ccc(F)c(Cl)c1` [Example 377, 8-chloro-4-((3-chloro-4-fluoro-phenyl)amino)-6-((di(pyridin-2-yl)methyl)amino)quinoline-3-carbonitrile], for which the EC50 in the test on TNFα (setting [1]) was greater than 1000 nM. Moreover, the IC50 on Human Cot (setting [3]) stood at 398 nM.
Consider `[2H]C(Nc1cc(Cl)c2ncc(C#N)c(NCC(C)(C)C)c2c1)(c1cn(C2CC2)nn1)c1scnc1C` (stereo not drawn) [Example 102, 8-chloro-6-(((1-cyclopropyl-1H-1,2,3-triazol-4-yl)(4-methylthiazol-5-yl)methyl-d)amino)-4-(neopentyl-amino)quinoline-3-carbonitrile], for which the EC50 in the test on TNFα (setting [1]) came out at 461 nM. At Human Cot (setting [2]), this molecule registered a half-maximal inhibitory concentration (IC50) of 3 nM.
Take `CC(C)(C)CNc1c(C#N)cnc2c(Cl)cc(N[C@H](c3cn(C4(C#N)CC4)nn3)c3cccc4ncccc34)cc12` [Example 567, (S)-8-chloro-6-(((1-(1-cyanocyclopropyl)-1H-1,2,3-triazol-4-yl)(quinolin-5-yl)methyl)amino)-4-(neopentylamino)-quinoline-3-carbonitrile]: in the test with TNFα (setting [1]), the EC50 worked out at 66 nM. Besides, at Human Cot (setting [2]), the IC50 came to 2 nM.
For `Cn1ccc2c([C@H](Nc3cc(C#N)c4ncc(C#N)c(NCC(C)(C)C)c4c3)c3cn(C45CC(C4)C5)nn3)cccc2c1=O` [Example 891, (S)-6-(((1-(bicyclo[1.1.1]pentan-1-yl)-1H-1,2,3-triazol-4-yl)(2-methyl-1-oxo-1,2-dihydroisoquinolin-5-yl)methyl)amino)-4-(neopentylamino)quinoline-3,8-dicarbonitrile], the EC50 in the test on TNFα (setting [4]) worked out at 12 nM. This molecule registered an IC50 on Human Cot (setting [5]) of 1 nM.
Regarding `N#CCC[C@@H](Nc1c(C#N)cnc2c(C#N)cc(N[C@H](c3cn(C4CC4)nn3)c3csc4c3CCN(C3COC3)C4)cc12)c1ccccc1` [Example 414, 4-(((R)-3-cyano-1-phenylpropyl)amino)-6-(((S)-(1-cyclopropyl-1H-1,2,3-triazol-4-yl)(6-(oxetan-3-yl)-4,5,6,7-tetrahydro-thieno[2,3-c]pyridin-3-yl)methyl)amino)-quinoline-3,8-dicarbonitrile], the EC50 in the test on TNFα (setting [1]) came out at 35 nM. Besides, it took 1 nM to reach half-maximal inhibition on Human Cot (setting [2]) (IC50).
Regarding `CC[C@@H](Nc1c(C#N)cnc2c(Cl)cc(N[C@H](c3cn(C4(C(F)(F)F)CC4)nn3)c3ccc(F)nc3C)cc12)c1ccccc1` [Example 440, 8-chloro-6-(((S)-(6-fluoro-2-methyl-pyridin-3-yl)(1-(1-(trifluoromethyl)-cyclopropyl)-1H-1,2,3-triazol-4-yl)methyl)amino)-4-(((R)-1-phenyl-propyl)amino)quinoline-3-carbonitrile], in the test with TNFα (setting [1]), the EC50 worked out at 171 nM. The molecule further returned an IC50 at Human Cot (setting [2]) of 7 nM.
Take `Cc1ncsc1[C@H](Nc1cc(Cl)c2ncc(C#N)c(NCC(C)(C)C)c2c1)c1cn(C2(C(F)F)CC2)nn1` [Example 619, (R)-8-chloro-6-(((1-(1-(difluoromethyl)-cyclopropyl)-1H-1,2,3-triazol-4-yl)(4-methylthiazol-5-yl)methyl)amino)-4-(neopentylamino)quinoline-3-carbonitrile]: the EC50 with TNFα (setting [1]) was found to be 189 nM. The molecule further displayed an IC50 against Human Cot (setting [2]) of 7 nM.
`Cn1ccc2c([C@H](Nc3cc(Cl)c4ncc(C#N)c(NCC(C)(C)C)c4c3)c3cn(C(C)(C)C)nn3)cccc2c1=O` [Example 747, (S)-6-(((1-(tert-butyl)-1H-1,2,3-triazol-4-yl)(2-methyl-1-oxo-1,2-dihydroisoquinolin-5-yl)methyl)amino)-8-chloro-4-(neopentylamino)quinoline-3-carbonitrile]: the EC50 in the test with TNFα (setting [1]) turned out to be 36 nM. Further, the IC50 against Human Cot (setting [2]) was 4 nM.
For `Cc1ccc([C@H](Nc2cc(C#N)c3ncc(C#N)c(NCC(C)(C)C)c3c2)c2cn(C3(C(F)(F)F)CC3)nn2)c(F)n1` [Example 690, (S)-6-(((2-fluoro-6-methylpyridin-3-yl)(1-(1-(trifluoromethyl)cyclopropyl)-1H-1,2,3-triazol-4-yl)methyl)amino)-4-(neopentylamino)quinoline-3,8-dicarbonitrile], the EC50 with TNFα (setting [1]) amounted to 250 nM. Further, the midpoint of inhibition on Human Cot (setting [2]), the IC50, lay at 21 nM.
Turning to `COc1nccc2c([C@H](Nc3cc(C#N)c4ncc(C#N)c(NCC(C)(C)C(F)(F)F)c4c3)c3cn(C45CC(C4)C5)nn3)cccc12` [Example 820, (S)-6-(((1-(bicyclo[1.1.1]pentan-1-yl)-1H-1,2,3-triazol-4-yl)(1-methoxylsoquinolin-5-yl)methyl)amino)-4-((3,3,3-trifluoro-2,2-dimethylpropyl)amino)quinoline-3,8-dicarbonitrile], in the test with TNFα (read-out: EC50 TNF, LPS-stimulated human monocytes, TNFα TR-FRET), the EC50 came to 33 nM. Further, the IC50 on Human Cot (read-out: IC50 HTRF, Cot HTRF (TR-FRET KinEASE) biochemical assay, 400 μM ATP) was 3 nM.

A word on the EC50: it is the concentration that produces a half-maximal response. Broadly, the IC50 is the concentration needed to halve the response being measured.
